Experiments:
Conditions in all cases: scale 0 to 100
corn = test: Test E preemergence; assay type: in vivo, Zea mays
Source text: (§1) Seeds of plant species selected from corn (Zea mays), soybean (Glycine max), lambsquarters (Chenopodium album), poinsettia, wild (wild poinsettia, Euphorbia heterophylla), pigweed, palmer (palmer pigweed, Amaranthus palmeri), waterhemp (common waterhemp, Amaranthus rudis), surinam grass (Brachiaria decumbens), crabgrass, large (large crabgrass, Digitaria sanguinalis), crabgrass, Brazilian (Brazilian crabgrass, Digitaria horizontalis), panicum, fall (fall panicum, Panicum dichotomiflorum), foxtail, giant (giant foxtail, Setaria faberii), foxtail, green (green foxtail, Setaria viridis), goosegrass (Eleusine indica), johnsongrass (Sorghum halepense), ragweed (common ragweed, Ambrosia elatior), barnyardgrass (Echinochloa crus-galli), sandbur (southern sandbur, Cenchrus echinatus), arrowleaf sida (Sida rhombifolia), ryegrass, Italian (Italian ryegrass, Lolium multiflorum), dayflower, VA (Virginia dayflower, Commelina virginica), field bindweed (Convolvulus arvensis), cocklebur (common cocklebur, Xanthium strumarium), morningglory (Ipomoea coccinea), nightshade (eastern black nightshade, Solanum ptycanthum), kochia (Kochia scoparia), nutsedge, yellow (yellow nutsedge, Cyperus esculentus), smartweed (ladysthumb smartweed, Polygonum persicaria), velvetleaf (Abutilon theophrasti), horseweed (Conyza canadensis), and beggarticks (hairy beggarticks, Bidens pilosa), were planted into a silt loam soil and treated preemergence with test chemicals formulated in a non-phytotoxic solvent mixture which included a surfactant.
(§2) At the same time, plants from these crop and weed species and also waterhemp_RES1, (ALS & Triazine resistant common waterhemp, Amaranthus rudis), and waterhemp_RES2, (ALS & HPPD resistant common waterhemp, Amaranthus rudis) were planted in pots containing Sunshine Redi-Earth® planting medium comprising spaghnum peat moss, vermiculite, starter nutrients and dolomitic limestone were treated with postemergence applications of test chemicals formulated in the same manner. Plants ranged in height from 2 to 18 cm for postemergence treatments (1- to 4-leaf stage). Treated plants and controls were maintained in a greenhouse for 14 to 21 d, after which time all species were compared to controls and visually evaluated. Plant response ratings, summarized in Table E, are based on a scale of 0 to 100 where 0 is no effect and 100 is complete control. A dash (-) response means no test result.

soybean [1] = test: Test E preemergence; assay type: in vivo, Glycine max
Source text: as §1, §2

lambsquarters = test: Test E preemergence; assay type: in vivo, Chenopodium album
Source text: as §1, §2

pigweed, palmer = test: Test E preemergence; assay type: in vivo, Amaranthus palmeri
Source text: as §1, §2

crabgrass, large = test: Test E preemergence; assay type: in vivo, Digitaria sanguinalis
Source text: as §1, §2

panicum, fall = test: Test E preemergence; assay type: in vivo, Panicum dichotomiflorum
Source text: as §1, §2

foxtail, green = test: Test E preemergence; assay type: in vivo, Setaria viridis
Source text: as §1, §2

goosegrass = test: Test E preemergence; assay type: in vivo, Eleusine indica
Source text: as §1, §2

johnsongrass = test: Test E preemergence; assay type: in vivo, Sorghum halepense
Source text: as §1, §2

ragweed [2] = test: Test E preemergence; assay type: in vivo, Ambrosia elatior
Source text: as §1, §2

arrowleaf sida [3] = test: Test E preemergence; assay type: in vivo, Sida rhombifolia
Source text: as §1, §2

ryegrass, Italian = test: Test E preemergence; assay type: in vivo, Lolium multiflorum
Source text: as §1, §2

dayflower, VA [4] = test: Test E preemergence; assay type: in vivo, Commelina virginica
Source text: as §1, §2

nightshade = test: Test E preemergence; assay type: in vivo, Solanum ptycanthum
Source text: as §1, §2

nutsedge, yellow = test: Test E preemergence; assay type: in vivo, Cyperus esculentus
Source text: as §1, §2

velvetleaf = test: Test E preemergence; assay type: in vivo, Abutilon theophrasti
Source text: as §1, §2

soybean [5] = test: Test E postemergence; assay type: in vivo, Glycine max
Source text: as §1, §2

ragweed [6] = test: Test E postemergence; assay type: in vivo, Ambrosia elatior
Source text: as §1, §2

arrowleaf sida [7] = test: Test E postemergence; assay type: in vivo, Sida rhombifolia
Source text: as §1, §2

dayflower, VA [8] = test: Test E postemergence; assay type: in vivo, Commelina virginica
Source text: as §1, §2

beggarticks = test: Test E postemergence; assay type: in vivo, Bidens pilosa
Source text: as §1, §2

CCOc1nc(-c2ccccc2)nn1Cc1ccnc(C(F)(F)F)c1 [Compound 27]
Plant response rating (corn; 16 g ai/ha): 0
Plant response rating (corn; 31 g ai/ha): 0
Plant response rating (corn; 62 g ai/ha): 25
Plant response rating (corn; 125 g ai/ha): 50
Plant response rating (soybean [1]; 16 g ai/ha): 0
Plant response rating (soybean [1]; 31 g ai/ha): 0
Plant response rating (soybean [1]; 62 g ai/ha): 0
Plant response rating (soybean [1]; 125 g ai/ha): 15
Plant response rating (lambsquarters; 16 g ai/ha): 80
Plant response rating (lambsquarters; 31 g ai/ha): 100
Plant response rating (lambsquarters; 62 g ai/ha): 100
Plant response rating (lambsquarters; 125 g ai/ha): 100
Plant response rating (pigweed, palmer; 16 g ai/ha): 85
Plant response rating (pigweed, palmer; 31 g ai/ha): 100
Plant response rating (pigweed, palmer; 62 g ai/ha): 100
Plant response rating (pigweed, palmer; 125 g ai/ha): 100
Plant response rating (crabgrass, large; 16 g ai/ha): 98
Plant response rating (crabgrass, large; 31 g ai/ha): 100
Plant response rating (crabgrass, large; 62 g ai/ha): 100
Plant response rating (crabgrass, large; 125 g ai/ha): 100
Plant response rating (panicum, fall; 16 g ai/ha): 65
Plant response rating (panicum, fall; 31 g ai/ha): 100
Plant response rating (panicum, fall; 62 g ai/ha): 100
Plant response rating (panicum, fall; 125 g ai/ha): 100
Plant response rating (foxtail, green; 16 g ai/ha): 75
Plant response rating (foxtail, green; 31 g ai/ha): 100
Plant response rating (foxtail, green; 62 g ai/ha): 100
Plant response rating (foxtail, green; 125 g ai/ha): 100
Plant response rating (goosegrass; 16 g ai/ha): 80
Plant response rating (goosegrass; 31 g ai/ha): 98
Plant response rating (goosegrass; 62 g ai/ha): 95
Plant response rating (goosegrass; 125 g ai/ha): 100
Plant response rating (johnsongrass; 16 g ai/ha): 100
Plant response rating (johnsongrass; 31 g ai/ha): 95
Plant response rating (johnsongrass; 62 g ai/ha): 100
Plant response rating (johnsongrass; 125 g ai/ha): 100
Plant response rating (ragweed [2]; 16 g ai/ha): 50
Plant response rating (ragweed [2]; 31 g ai/ha): 35
Plant response rating (ragweed [2]; 62 g ai/ha): 90
Plant response rating (ragweed [2]; 125 g ai/ha): 80
Plant response rating (arrowleaf sida [3]; 16 g ai/ha): 20
Plant response rating (arrowleaf sida [3]; 31 g ai/ha): 20
Plant response rating (arrowleaf sida [3]; 62 g ai/ha): 75
Plant response rating (arrowleaf sida [3]; 125 g ai/ha): 90
Plant response rating (ryegrass, Italian; 16 g ai/ha): 0
Plant response rating (ryegrass, Italian; 31 g ai/ha): 20
Plant response rating (ryegrass, Italian; 62 g ai/ha): 60
Plant response rating (ryegrass, Italian; 125 g ai/ha): 95
Plant response rating (dayflower, VA [4]; 16 g ai/ha): 10
Plant response rating (dayflower, VA [4]; 31 g ai/ha): 10
Plant response rating (dayflower, VA [4]; 62 g ai/ha): 10
Plant response rating (dayflower, VA [4]; 125 g ai/ha): 50
Plant response rating (nightshade; 16 g ai/ha): 0
Plant response rating (nightshade; 31 g ai/ha): 50
Plant response rating (nightshade; 62 g ai/ha): 98
Plant response rating (nightshade; 125 g ai/ha): 100
Plant response rating (nutsedge, yellow; 16 g ai/ha): 0
Plant response rating (nutsedge, yellow; 31 g ai/ha): 0
Plant response rating (nutsedge, yellow; 62 g ai/ha): 0
Plant response rating (nutsedge, yellow; 125 g ai/ha): 15
Plant response rating (velvetleaf; 16 g ai/ha): 35
Plant response rating (velvetleaf; 31 g ai/ha): 50
Plant response rating (velvetleaf; 62 g ai/ha): 50
Plant response rating (velvetleaf; 125 g ai/ha): 95
Plant response rating (soybean [5]; 16 g ai/ha): 70
Plant response rating (soybean [5]; 31 g ai/ha): 80
Plant response rating (soybean [5]; 62 g ai/ha): 80
Plant response rating (soybean [5]; 125 g ai/ha): 95
Plant response rating (ragweed [6]; 16 g ai/ha): 50
Plant response rating (ragweed [6]; 31 g ai/ha): 50
Plant response rating (ragweed [6]; 62 g ai/ha): 50
Plant response rating (ragweed [6]; 125 g ai/ha): 60
Plant response rating (arrowleaf sida [7]; 16 g ai/ha): 70
Plant response rating (arrowleaf sida [7]; 31 g ai/ha): 80
Plant response rating (arrowleaf sida [7]; 62 g ai/ha): 90
Plant response rating (arrowleaf sida [7]; 125 g ai/ha): 100
Plant response rating (dayflower, VA [8]; 16 g ai/ha): 50
Plant response rating (dayflower, VA [8]; 31 g ai/ha): 60
Plant response rating (dayflower, VA [8]; 62 g ai/ha): 70
Plant response rating (dayflower, VA [8]; 125 g ai/ha): 75
Plant response rating (beggarticks; 16 g ai/ha): 40
Plant response rating (beggarticks; 31 g ai/ha): 50
Plant response rating (beggarticks; 62 g ai/ha): 50
Plant response rating (beggarticks; 125 g ai/ha): 55
